Source: US10898536B2, “Method of inhibiting propionibacterium acnes” (Sami Labs Limited, priority 2016, dated 2021)
In brackets after ≈: the same amount, converted by molar mass.

Columns and labels:
[1] = Solubility in solvents (observed when recording NMR); assay type: physicochemical; details: most of the solvents except DMSO
Description: In ^1H NMR spectrum, the phenolic OH (5-OH) adjacent to the carbonyl was assigned from the downfield signal at δ 13.36 ppm (70%) and 13.33 ppm (30%) and these two signals appeared due to the presence of the two conformers α and β in about 70:30 ratio. The assignment of two doublets at δ 7.15 ppm (˜30%) and 6.94 ppm (˜70%) was crucial in ^1H NMR spectrum. Nonetheless the disappearance of these two signals in D2O exchanged ^1H NMR spectrum (FIG. 5) ascertained that these two doublet signals are nothing but appeared due to the presence of the hydroxyl group (14-OH) sustaining powerful coupling with anomeric proton (14-H). Thus the signals at δ 7.15 ppm (d, ˜30%, β-OH, J=7.5 Hz) and at 6.94 ppm (d, ˜70%, α-OH, J=4.2 Hz) were assigned corresponding to the anomeric 14-OH. Similarly, though the anomeric proton (14-H) was expected to appear as a doublet however owing to further coupling with 14-OH, it appeared as two signals one as double doublets at δ 5.32 ppm (dd, ˜70%, 14-α-H, J=4.2 Hz, 2.1 Hz) and another one as triplet at 4.87 ppm (t, ˜30%, 14-β-H, J=7.8 Hz). The coupling interferences in 14-α/β-H due to 14-OH was disappeared in D2O exchanged ^1H NMR spectrum (FIG. 5) and signals were clearly appeared as doublets at δ 5.28 (d, ˜70%, 14-α-H, J=1.2 Hz) and 4.81 ppm (d, ˜30%, 14-β-H, J=8.7 Hz). As expected the signals ratio ˜70:30 were reflected in the ^13C NMR spectrum also. […]

[2] = tested on: Propionibacterium acnes (ATCC 11827); assay: Antibacterial activity by agar well diffusion method (zone of inhibition); assay type: cell-based; details: P. acnes, 48 h anaerobic, inhibition detected in all tested concentrations (10-1.25 μg/mL)
Experimental: In vitro anti-acne activity of isolated compounds 1 and 2 from the stem bark extract of Artocarpus hirsutus were evaluated against acne causing bacterium, Propionibacterium acnes. The antibacterial activity was determined by agar well diffusion method. The minimum inhibitory concentration (MIC) of the compounds were then ascertained by broth micro dilution method.
Microorganisms: Acne causing bacterium Propionibacterium acnes (ATCC 11827) was procured from American type culture collection Rockville, USA.
Media: Reinforced Clostridial Agar (Hi Media; M154) and Reinforced Clostridial broth (Hi Media; M443) were used in the experiments.
The antibacterial activities of isolated compounds were performed by agar well diffusion method. The samples were dissolved in DMSO to obtain a concentration in the range of 0.5-100 mg/mL. Propionibacterium acnes was cultured on Reinforced Clostridial Agar (RCA) M154 procured from Hi Media and incubated at 37° C. for 48 h in an anaerobic chamber providing gas mixture containing 80% nitrogen, 10% carbon dioxide and 10% hydrogen. The bacterial culture was suspended in sterile normal saline and adjusted to 1.0×10^8 CFU/mL (CLSI, M02-A11; Vol. 32 No. 1). The sterile RCA was seeded with the standardized culture of P. acnes and poured into plates. […] The diameter of zone of inhibition around the wells were measured and recorded.

[3] = tested on: Propionibacterium acnes (ATCC 11827); assay: Minimum inhibitory concentration by broth micro dilution method; assay type: cell-based; details: Cutibacterium acnes, ATCC11827, P. acnes, 37° C., 48 h, anaerobic
Experimental: In vitro anti-acne activity of isolated compounds 1 and 2 from the stem bark extract of Artocarpus hirsutus were evaluated against acne causing bacterium, Propionibacterium acnes. The antibacterial activity was determined by agar well diffusion method. The minimum inhibitory concentration (MIC) of the compounds were then ascertained by broth micro dilution method. Microorganisms: Acne causing bacterium Propionibacterium acnes (ATCC 11827) was procured from American type culture collection Rockville, USA. Media: Reinforced Clostridial Agar (Hi Media; […]) and Reinforced Clostridial broth (Hi Media; […]) were used in the experiments. The minimum inhibitory concentrations (MIC) of the isolated compounds against P. acnes were determined by broth micro dilution method. Two-fold dilutions of the isolated compounds were prepared in Reinforced Clostridial broth (RCB) to obtain concentrations in the range of 0.1-2000 μg/mL. The diluted samples were loaded in 96-well micro titre plates. The samples were inoculated with the test culture of P. acnes so that the final concentration of the bacteria in each well is 1×10^5 CFU (CLSI, M11-A8; Vol. 32 No. 5). The plates were incubated under anaerobic conditions at 37° C. for 48 h and thereafter observed for inhibition of bacterial growth. The minimum concentration required for inhibiting the growth of P. acnes was considered as minimum inhibitory concentration (MIC).

| solubility [1] | MIC [3] | Structure (SMILES) | zone of inhibition around the wells [2] |
| --- | --- | --- | --- |
| relatively poor | 2 µg/mL (≈ 4.44 µM) | CC1C(O)Oc2c(O)cc(O)c3c2C1Cc1c-3oc2c3c(cc(O)c2c1=O)OC(C)(C)C=C3 (stereo not drawn) [pyranocycloartobiloxanthone A (α & β), Pyranocycloartobiloxanthone A] | good inhibition |
| – | 0.03 µg/mL (≈ 0.0706 µM) | CCC[C@@H]1C[C@@H](C(=O)N[C@@H]([C@H]2O[C@H](SC)[C@H](O)[C@@H](O)[C@H]2O)[C@H](C)Cl)N(C)C1 [Clindamycin, reference compound] | – |
| – | 2 µg/mL (≈ 4.58 µM) | CC(C)=CCc1c(-c2cc(O)c(O)cc2O)oc2c3c(cc(O)c2c1=O)OC(C)(C)C=C3 [Artonine E] | good inhibition |
